Source: patent publication US20240293392A1, “INHIBITOR COMPOUNDS” (NeoPhore Limited, priority 2021, published 2024)
pIC50: −log10 of the molar value.

Tests used:
[1] = target: T1, recombinant N-terminal MLH1 (residues 15-340) (Homo sapiens, UniProt P40692); assay: Fluorescence Polarisation Assay for MLH1; assay type: binding; conditions: fluorescence polarisation probe displacement; 100 nM N-terminal MLH1, 5 nM probe compound
T1 construct: recombinant N-terminal MLH1 (residues 15-340)
T1 sequence (P40692 15-340): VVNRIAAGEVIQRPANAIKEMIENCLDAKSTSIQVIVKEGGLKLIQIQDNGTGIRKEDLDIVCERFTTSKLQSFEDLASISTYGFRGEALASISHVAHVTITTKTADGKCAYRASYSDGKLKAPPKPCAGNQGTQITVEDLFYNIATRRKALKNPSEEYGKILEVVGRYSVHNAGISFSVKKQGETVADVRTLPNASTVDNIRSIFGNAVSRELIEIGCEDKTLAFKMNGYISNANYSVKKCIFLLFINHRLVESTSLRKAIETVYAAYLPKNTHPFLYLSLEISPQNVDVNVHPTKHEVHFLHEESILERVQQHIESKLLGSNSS
In short: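 FP displacement assay: 100 nM MLH1 (residues 15-340) preincubated 30 min at room temperature with compound in 25 mM HEPES pH 7.5, 250 mM NaCl, 10 mM MgCl2, 0.01% Triton X-100, 5 mM DTT, then 5 nM rhodamine-labelled probe added and read immediately. Data normalised to no-inhibitor and no-enzyme controls.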

[2] = target: T2, recombinant N-terminal PMS2 (residues 1-365) (Homo sapiens, UniProt P54278); assay: Fluorescence Polarisation Assay for PMS2; assay type: binding; conditions: fluorescence polarisation probe displacement; 10 nM N-terminal PMS2, 5 nM probe compound; read-out: PMS2 IC50
T2 construct: recombinant N-terminal PMS2 (residues 1-365)
T2 sequence (P54278 1-365): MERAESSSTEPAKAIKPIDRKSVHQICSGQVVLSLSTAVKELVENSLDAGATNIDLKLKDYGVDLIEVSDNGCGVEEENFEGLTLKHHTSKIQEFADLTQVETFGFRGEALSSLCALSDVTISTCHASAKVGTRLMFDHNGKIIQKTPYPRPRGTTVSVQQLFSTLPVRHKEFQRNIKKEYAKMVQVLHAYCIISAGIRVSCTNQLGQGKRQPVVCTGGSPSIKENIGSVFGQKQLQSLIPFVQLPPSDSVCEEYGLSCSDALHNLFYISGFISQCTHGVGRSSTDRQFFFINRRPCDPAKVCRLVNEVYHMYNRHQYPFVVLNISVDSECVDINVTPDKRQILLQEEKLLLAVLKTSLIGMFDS
In short: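 Competition fluorescence polarisation with 10 nM N-terminal PMS2 and 5 nM fluorescent probe (final), read after 1 h at room temperature following 30 min compound pre-incubation. Data normalised to no-inhibitor and no-enzyme controls; single-point screening or serial dilutions for potency.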

pIC50 [1]	pIC50 [2]	Structure (SMILES)
5.00 to 6.00	5.00 to 6.00	O=C(c1c(O)cc(O)cc1OCc1ccccc1)N1CCc2cccc(Nc3cccnc3)c2C1 [Example 118, (2-(Benzyloxy)-4,6-dihydroxyphenyl)(8-(pyridin-3-ylamino)-3,4-dihydroisoquinolin-2(1H)-yl)methanone]
> 6.00	> 6.00	CN1CCN(C(=O)c2cc3c(c(N[C@H]4CCOC4)c2)CN(C(=O)c2c(O)cc(O)cc2OCc2ccccc2)CC3)CC1 [Example 127, (S)-(2-(2-(Benzyloxy)-4,6-dihydroxybenzoyl)-8-((tetrahydrofuran-3-yl)amino)-1,2,3,4-tetrahydroisoquinolin-6-yl)(4-methylpiperazin-1-yl)methanone]
> 6.00	< 5.00	CC(=O)N1CC[C@@H](Nc2cccc3c2CN(C(=O)c2c(O)cc(O)cc2OCc2ccccc2)CC3)C1 [Example 66, (R)-1-(3-((2-(2-(Benzyloxy)-4,6-dihydroxybenzoyl)-1,2,3,4-tetrahydroisoquinolin-8-yl)amino)pyrrolidin-1-yl)ethan-1-one]
> 6.00	> 6.00	Cc1cccc(COc2cc(O)cc(O)c2C(=O)N2CCc3cccc(N[C@H]4CCOC4)c3C2)c1 [Example 124, (S)-(2,4-Dihydroxy-6-((3-methylbenzyl)oxy)phenyl)(8-((tetrahydrofuran-3-yl)amino)-3,4-dihydroisoquinolin-2(1H)-yl)methanone]
> 6.00	< 5.00	COCCOc1cc2c(c(N[C@@H]3CCOC3)c1)CN(C(=O)c1c(O)cc(O)cc1OCc1ccccc1)CC2 [Example 60, (R)-(2-(Benzyloxy)-4,6-dihydroxyphenyl)(6-(2-methoxyethoxy)-8-((tetrahydrofuran-3-yl)amino)-3,4-dihydroisoquinolin-2(1H)-yl)methanone]
5.00 to 6.00	5.00 to 6.00	O=C(c1c(O)cc(O)cc1OCc1ccccc1)N1Cc2cccc(CNC3COC3)c2C1 [Example 81, (2-(Benzyloxy)-4,6-dihydroxyphenyl)(4-((oxetan-3-ylamino)methyl)isoindolin-2-yl)methanone]
> 6.00	> 6.00	CN1C[C@H](Nc2cccc3c2CN(C(=O)c2c(O)cc(O)cc2OCc2ccccc2)C3)CC1=O [Example 136, (R)-4-((2-(2-(Benzyloxy)-4,6-dihydroxybenzoyl)isoindolin-4-yl)amino)-1-methylpyrrolidin-2-one]
> 6.00	5.00 to 6.00	CN(C)C(=O)c1cc2c(c(N[C@@H]3CCOC3)c1)CN(C(=O)c1c(O)cc(O)cc1OCc1ccccc1)CC2 [Example 129, (R)-2-(2-(Benzyloxy)-4,6-dihydroxybenzoyl)-N,N-dimethyl-8-((tetrahydrofuran-3-yl)amino)-1,2,3,4-tetrahydroisoquinoline-6-carboxamide]
5.00 to 6.00	< 5.00	CC(=O)N1CCC(Nc2cccc3c2CN(C(=O)c2c(O)cc(O)cc2OCc2ccccc2)CC3)CC1 [Example 69, 1-(4-((2-(2-(Benzyloxy)-4,6-dihydroxybenzoyl)-1,2,3,4-tetrahydroisoquinolin-8-yl)amino)piperidin-1-yl)ethan-1-one]
> 6.00	> 6.00	CN1CCN(Cc2cc3c(c(N[C@H]4CCOC4)c2)CN(C(=O)c2c(O)cc(O)cc2OCc2ccccc2)CC3)CC1 [Example 121, (S)-(2-(Benzyloxy)-4,6-dihydroxyphenyl)(6-((4-methylpiperazin-1-yl)methyl)-8-((tetrahydrofuran-3-yl)amino)-3,4-dihydroisoquinolin-2(1H)-yl)methanone]
> 6.00	5.00 to 6.00	COCCOc1cc2c(c(N[C@H]3CCOC3)c1)CN(C(=O)c1c(O)cc(O)cc1OCc1ccccc1)CC2 [Example 64, (S)-(2-(Benzyloxy)-4,6-dihydroxyphenyl)(6-(2-methoxyethoxy)-8-((tetrahydrofuran-3-yl)amino)-3,4-dihydroisoquinolin-2(1H)-yl)methanone]

More lines, now with the values behind:

Structure (SMILES)	pIC50 [1]	pIC50 [2]
CC(=O)N1CCC(Nc2cccc3c2CN(C(=O)c2c(O)cc(O)cc2OCc2ccccc2)C3)C1 (centres unmarked) [Example 36, 1-(3-((2-(2-(Benzyloxy)-4,6-dihydroxybenzoyl)isoindolin-4-yl)amino)pyrrolidin-1-yl)ethan-1-one]	> 6.00	5.00 to 6.00
O=C(c1c(O)cc(O)cc1OCC1CCCCC1)N1CCc2cccc(NC3CCOC3)c2C1 (centres unmarked) [Example 28, (2-(Cyclohexylmethoxy)-4,6-dihydroxyphenyl)(8-((tetrahydrofuran-3-yl)amino)-3,4-dihydroisoquinolin-2(1H)-yl)methanone]	5.00 to 6.00	5.00 to 6.00
O=C(c1c(O)cc(O)cc1OCc1ccccc1)N1Cc2cccc(NC3CCCOC3)c2C1 (centres unmarked) [Example 14, (2-(Benzyloxy)-4,6-dihydroxyphenyl)(4-((tetrahydro-2H-pyran-3-yl)amino)isoindolin-2-yl)methanone]	> 6.00	5.00 to 6.00
CC12CC(Nc3cccc4c3CN(C(=O)c3c(O)cc(O)cc3OCc3ccccc3)C4)(CO1)C2 [Example 52, (2-(Benzyloxy)-4,6-dihydroxyphenyl)(4-((1-methyl-2-oxabicyclo[2.1.1]hexan-4-yl)amino)isoindolin-2-yl)methanone]	> 6.00	5.00 to 6.00
CNCc1ccc2c(c1)CN(C(=O)c1c(O)cc(O)cc1OCc1ccccc1)C2 [Example 4, (2-(Benzyloxy)-4,6-dihydroxyphenyl)(5-((methylamino)methyl)isoindolin-2-yl)methanone]	> 6.00	> 6.00
O=C(c1c(O)cc(O)cc1OCc1ccccc1)N1Cc2ccccc2C1CO (centres unmarked) [Example 13, (2-(Benzyloxy)-4,6-dihydroxyphenyl)(1-(hydroxymethyl)isoindolin-2-yl)methanone]	> 6.00	5.00 to 6.00
O=C(c1c(O)cc(O)cc1OCc1ccccc1)N1Cc2cccc(NC3COCC(F)(F)C3)c2C1 (centres unmarked) [Example 32, (2-(Benzyloxy)-4,6-dihydroxyphenyl)(4-((5,5-difluorotetrahydro-2H-pyran-3-yl)amino)isoindolin-2-yl)methanone]	5.00 to 6.00	5.00 to 6.00
CN1CC(Nc2cccc3c2CN(C(=O)c2c(O)cc(O)cc2OCc2ccccc2)C3)CC1=O (centres unmarked) [Example 18, 4-((2-(2-(Benzyloxy)-4,6-dihydroxybenzoyl)isoindolin-4-yl)amino)-1-methylpyrrolidin-2-one]	> 6.00	5.00 to 6.00
O=C(c1c(O)cc(O)cc1OCC1CC1)N1Cc2cccc(NC3CCOC3)c2C1 (centres unmarked) [Example 25, (2-(Cyclopropylmethoxy)-4,6-dihydroxyphenyl)(4-((tetrahydrofuran-3-yl)amino)isoindolin-2-yl)methanone]	> 6.00	5.00 to 6.00
O=C(c1c(O)cc(O)cc1OCc1ccccc1)N1Cc2ccccc2C(O)C1 (single isomer, unassigned) [Example 51, (2-Benzyloxy-4,6-dihydroxy-phenyl)-(4-hydroxy-3,4-dihydro-1H-isoquinolin-2-yl)methanone]	5.00 to 6.00	< 5.00
O=C(c1c(O)cc(O)cc1OCc1ccccc1)N1Cc2cccc(NCc3cocn3)c2C1 [Example 20, (2-(Benzyloxy)-4,6-dihydroxyphenyl)(4-((oxazol-4-ylmethyl)amino)isoindolin-2-yl)methanone]	> 6.00	5.00 to 6.00
